Measurements from patent US10259810B2, “N-sulfonylated pyrazolo[3,4-b]pyridin-6-carboxamides and method of use” (AbbVie S.à.r.l., priority 2015, dated 2019).
pEC50: −log10 of the molar value.

Experiments:
Format in all cases: cell-based
ΔF508-CFTR [1] = target: T1, ΔF508-CFTR (Homo sapiens, UniProt P13569, DEL508-508); experiment: CFTR cell surface levels using HRP-tagged ΔF508-CFTR expressing CFBE cells, in the presence of a co-corrector; settings: HRP-tagged ΔF508-CFTR CFBE cells, in the presence of 3 μM co-corrector; for pEC50: read-out: EC50
T1 construct: host or cells: CFBE41o-, doxycycline-inducible
In short: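 Chemiluminescent read-out of surface HRP (15 min, dark) after PBS washes. Activity is normalized as 100×(sample−DMSO)/(3 μM co-corrector alone−DMSO).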

CFTR ΔF508 = target: T2, CFTR ΔF508 (Homo sapiens, UniProt P13569, DEL508-508); experiment: Chronic TECC assay, primary bronchial epithelial cells of CF patients homozygous for CFTR ΔF508 (corrector, co-corrector and potentiator); settings: chronic TECC, AUC = full area under the curve upon forskolin stimulation; for EC50: read-out: EC50 (nM) (AUC**); for % Activity at 1 μM (AUC**): test compound at 1 μM; for % Activity at 3 μM (AUC**): test compound at 3 μM
T2 construct: bronchial epithelial cells isolated from CF patients homozygous for the CFTR ΔF508 mutation; McGill University; Asterand; University of North Carolina hAEC-CF; host or cells: primary human bronchial epithelial cells from CF patients homozygous for ΔF508, differentiated at air-liquid interface
In short: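 Primary bronchial epithelial cells from ΔF508-homozygous CF patients on collagen IV-coated Transwells were chronically treated with test compound plus corrector and potentiator, which were re-added before recording. Ieq was derived from PD and Rt in NaCl-Ringer, pH 7.4, at 37° C, with apical amiloride and bilateral forskolin, recorded every 2 min over 20 min. Ieq increase was normalized to controls, and EC50 was taken from per-well concentrations.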

ΔF508-CFTR [2] = target: T1, ΔF508-CFTR; experiment: CFTR cell surface levels using HRP-tagged ΔF508-CFTR expressing CFBE cells, intrinsic corrector capacity; parameters: % Activation: concentration or dose not given beside the values; settings: HRP-tagged ΔF508-CFTR expressing CFBE41o- cells, compound alone (intrinsic corrector capacity), 20 hours at 33° C.; for pEC50: read-out: EC50
In short: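 Read-out: chemiluminescent HRP activity of ECL4-HRP-tagged ΔF508-CFTR at the cell surface, 15 min substrate in dark. Normalized as 100×(sample−DMSO)/(positive control−DMSO).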

T1 sequence (P13569 with tags, fused parts or gaps DEL508-508): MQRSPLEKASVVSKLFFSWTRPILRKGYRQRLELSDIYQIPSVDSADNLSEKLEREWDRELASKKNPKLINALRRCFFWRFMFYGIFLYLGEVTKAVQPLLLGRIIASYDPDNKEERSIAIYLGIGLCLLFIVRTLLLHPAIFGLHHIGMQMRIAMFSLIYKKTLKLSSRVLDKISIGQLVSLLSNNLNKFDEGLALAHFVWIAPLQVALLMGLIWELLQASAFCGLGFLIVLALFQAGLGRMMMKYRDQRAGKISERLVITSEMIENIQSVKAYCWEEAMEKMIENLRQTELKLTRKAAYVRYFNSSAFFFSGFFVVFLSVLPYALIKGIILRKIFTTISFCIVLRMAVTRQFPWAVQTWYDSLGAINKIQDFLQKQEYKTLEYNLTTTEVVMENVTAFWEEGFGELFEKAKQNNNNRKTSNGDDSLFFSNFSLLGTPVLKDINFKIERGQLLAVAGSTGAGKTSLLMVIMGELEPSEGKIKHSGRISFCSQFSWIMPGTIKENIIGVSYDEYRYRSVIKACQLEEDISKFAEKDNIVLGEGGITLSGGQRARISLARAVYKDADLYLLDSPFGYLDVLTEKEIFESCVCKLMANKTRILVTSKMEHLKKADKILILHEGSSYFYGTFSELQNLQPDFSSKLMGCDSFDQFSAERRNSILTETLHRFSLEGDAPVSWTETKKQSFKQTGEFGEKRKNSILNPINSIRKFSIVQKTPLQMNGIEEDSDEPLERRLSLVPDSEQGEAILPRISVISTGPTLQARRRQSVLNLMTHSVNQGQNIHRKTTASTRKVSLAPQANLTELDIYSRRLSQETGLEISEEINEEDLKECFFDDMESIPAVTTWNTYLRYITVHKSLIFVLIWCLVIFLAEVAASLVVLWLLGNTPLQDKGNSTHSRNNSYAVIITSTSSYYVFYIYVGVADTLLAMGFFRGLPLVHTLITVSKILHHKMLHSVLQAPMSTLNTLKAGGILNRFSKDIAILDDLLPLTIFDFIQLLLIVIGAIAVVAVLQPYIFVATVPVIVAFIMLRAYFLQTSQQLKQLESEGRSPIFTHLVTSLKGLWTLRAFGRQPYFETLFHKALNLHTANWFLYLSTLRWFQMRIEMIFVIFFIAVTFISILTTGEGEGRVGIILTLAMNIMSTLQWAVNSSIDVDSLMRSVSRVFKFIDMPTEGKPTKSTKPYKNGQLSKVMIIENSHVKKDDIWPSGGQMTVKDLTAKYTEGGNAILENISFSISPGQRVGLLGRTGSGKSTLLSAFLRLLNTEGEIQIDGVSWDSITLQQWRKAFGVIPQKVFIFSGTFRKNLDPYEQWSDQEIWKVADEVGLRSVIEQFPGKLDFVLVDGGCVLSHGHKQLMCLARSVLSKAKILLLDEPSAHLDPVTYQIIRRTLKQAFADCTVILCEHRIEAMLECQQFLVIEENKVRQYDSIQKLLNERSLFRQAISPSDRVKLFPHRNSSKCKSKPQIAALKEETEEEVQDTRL
T2 sequence (P13569 with tags, fused parts or gaps DEL508-508): as above

Row | Structure (SMILES) | % Activation (ΔF508-CFTR [1]) [%] | pEC50 (ΔF508-CFTR [1]) | EC50 (CFTR ΔF508) [nM] | % Activation (ΔF508-CFTR [2]) [%] | pEC50 (ΔF508-CFTR [2]) | % Activity at 1 μM (AUC**) (CFTR ΔF508) [%] | % Activity at 3 μM (AUC**) (CFTR ΔF508) [%]
1 | COCC1CCN(c2cc(C(=O)NS(C)(=O)=O)nc3c2c(C(C)C)nn3-c2ccnc(N3CCOCC3)n2)CC1 [Compound 279, N-(methanesulfonyl)-4-[4-(methoxymethyl)piperidin-1-yl]-1-[2-(morpholin-4-yl)pyrimidin-4-yl]-3-(propan-2-yl)-1H-pyrazolo[3,4-b]pyridine-6-carboxamide] | 530.6 | 6.64 | 109 | 308.4 | 6.27 | – | –
2 | COC(=O)N1CCC(COc2cc(C(=O)NS(C)(=O)=O)nc3c2c(C2CCC2)nn3-c2ccccc2)CC1 [Compound 297, methyl 4-[({3-cyclobutyl-6-[(methanesulfonyl)carbamoyl]-1-phenyl-1H-pyrazolo[3,4-b]pyridin-4-yl}oxy)methyl]piperidine-1-carboxylate] | 423.43 | 7.11 | ≤ 30 | 193.9 | 7.00 | 470.97 | –
3 | CS(=O)(=O)NC(=O)c1cc(N2CCC(CCN3CCOCC3)CC2)c2c(C3CCC3)nn(-c3ccc(F)cc3)c2n1 [Compound 431, 3-cyclobutyl-1-(4-fluorophenyl)-N-(methanesulfonyl)-4-{4-[2-(morpholin-4-yl)ethyl]piperidin-1-yl}-1H-pyrazolo[3,4-b]pyridine-6-carboxamide] | 568.8 | 7.33 | – | 344.95 | 6.96 | 280 | –
4 | COCCS(=O)(=O)NC(=O)c1cc(N2CCC(COC)CC2)c2c(C(C)C)nn(-c3ccnc(N4CCOCC4)c3)c2n1 [Compound 249, N-(2-methoxyethanesulfonyl)-4-[4-(methoxymethyl)piperidin-1-yl]-1-[2-(morpholin-4-yl)pyridin-4-yl]-3-(propan-2-yl)-1H-pyrazolo[3,4-b]pyridine-6-carboxamide] | 468.15 | 6.64 | – | 187.6 | 6.43 | 271.29 | –
5 | CN(C)S(=O)(=O)NC(=O)c1cc(N2CCC(CN3CCOCC3)CC2)c2c(C3CCC3)nn(-c3ccc(F)cc3)c2n1 [Compound 409, 3-cyclobutyl-N-(dimethylsulfamoyl)-1-(4-fluorophenyl)-4-{4-[(morpholin-4-yl)methyl]piperidin-1-yl}-1H-pyrazolo[3,4-b]pyridine-6-carboxamide] | 481.1 | 6.97 | 150 | 245.4 | 6.81 | 420 | –
6 | COCC1CCN(c2cc(C(=O)NS(C)(=O)=O)nc3c2c(C(C)C)nn3-c2cc(C)nc(C)c2)CC1 [Compound 370, 1-(2,6-dimethylpyridin-4-yl)-N-(methanesulfonyl)-4-[4-(methoxymethyl)piperidin-1-yl]-3-(propan-2-yl)-1H-pyrazolo[3,4-b]pyridine-6-carboxamide] | 343.2 | 6.16 | – | 172.2 | 5.83 | – | 226.54
7 | COCC1CCN(c2cc(C(=O)NS(C)(=O)=O)nc3c2c(C2CCC2)nn3-c2ccccc2)CC1 [Compound 185, 3-cyclobutyl-N-(methanesulfonyl)-4-[4-(methoxymethyl)piperidin-1-yl]-1-phenyl-1H-pyrazolo[3,4-b]pyridine-6-carboxamide] | 546.7 | 6.84 | 45.4 | 331.6 | 6.62 | – | –
8 | C[C@@H](C1CCN(c2cc(C(=O)NS(=O)(=O)N(C)C)nc3c2c(C2CCC2)nn3-c2ccc(F)cc2)CC1)N1CCOCC1 [Compound 480, 3-cyclobutyl-N-(dimethylsulfamoyl)-1-(4-fluorophenyl)-4-{4-[(1S)-1-(morpholin-4-yl)ethyl]piperidin-1-yl}-1H-pyrazolo[3,4-b]pyridine-6-carboxamide] | 545.77 | 7.06 | – | 322.45 | 6.87 | 548.575 | –
9 | CC(C)Oc1nn(C2CCCCC2)c2nc(C(=O)NS(=O)(=O)N(C)C)cc(-c3ccc(C(=O)N4CCN(C)CC4)cc3)c12 [Compound 423, 1-cyclohexyl-N-(dimethylsulfamoyl)-4-[4-(4-methylpiperazine-1-carbonyl)phenyl]-3-[(propan-2-yl)oxy]-1H-pyrazolo[3,4-b]pyridine-6-carboxamide] | 376.85 | 6.96 | 39.8 | 175.55 | 6.85 | 365 | –
10 | COCCS(=O)(=O)NC(=O)c1cc(N2CCC(COC)CC2)c2c(C(C)C)nn(CC3CCC3)c2n1 [Compound 263, 1-(cyclobutylmethyl)-N-(2-methoxyethanesulfonyl)-4-[4-(methoxymethyl)piperidin-1-yl]-3-(propan-2-yl)-1H-pyrazolo[3,4-b]pyridine-6-carboxamide] | 475.45 | 6.39 | 77 | 260.1 | 6.35 | 399.85 | –
11 | CC(C1CCN(c2cc(C(=O)NS(=O)(=O)N(C)C)nc3c2c(C2CCC2)nn3-c2ccc(F)cc2)CC1)N1CCOCC1 (stereo not shown) [Compound 440, 3-cyclobutyl-N-(dimethylsulfamoyl)-1-(4-fluorophenyl)-4-{4-[1-(morpholin-4-yl)ethyl]piperidin-1-yl}-1H-pyrazolo[3,4-b]pyridine-6-carboxamide] | 543.55 | 7.26 | 2.98 | 334.8 | 6.89 | 696.6667 | –
12 | CN(C)S(=O)(=O)NC(=O)c1cc(N2CCC3(CC2)CCN(C2COC2)CC3)c2c(C3CCC3)nn(-c3ccc(F)cc3)c2n1 [Compound 614, 3-cyclobutyl-N-(dimethylsulfamoyl)-1-(4-fluorophenyl)-4-[9-(oxetan-3-yl)-3,9-diazaspiro[5.5]undecan-3-yl]-1H-pyrazolo[3,4-b]pyridine-6-carboxamide] | 381.35 | 6.77 | – | 172 | 6.68 | – | 407.7118
13 | CS(=O)(=O)NC(=O)c1cc(N2CCC(CN3CCOCC3)CC2)c2c(C3CCC3)nn(-c3ccc(F)cc3)c2n1 [Compound 410, 3-cyclobutyl-1-(4-fluorophenyl)-N-(methanesulfonyl)-4-{4-[(morpholin-4-yl)methyl]piperidin-1-yl}-1H-pyrazolo[3,4-b]pyridine-6-carboxamide] | 529.58 | 7.08 | 1.58 | 337.42 | 6.67 | 233.3333 | –
14 | CC(C)Oc1nn(C2CCCCC2)c2nc(C(=O)NS(=O)(=O)N(C)C)cc(-c3ccc(CN4CCOCC4)cc3)c12 [Compound 406, 1-cyclohexyl-N-(dimethylsulfamoyl)-4-{4-[(morpholin-4-yl)methyl]phenyl}-3-[(propan-2-yl)oxy]-1H-pyrazolo[3,4-b]pyridine-6-carboxamide] | 311.35 | 6.74 | – | 125.95 | 6.62 | 235 | –
15 | O=C(NS(=O)(=O)N1CCOCC1)c1cc(N2CCC(N3CCN(C4CC4)CC3)CC2)c2c(C3CCC3)nn(-c3ccccc3)c2n1 [Compound 555, 3-cyclobutyl-4-[4-(4-cyclopropylpiperazin-1-yl)piperidin-1-yl]-N-(morpholine-4-sulfonyl)-1-phenyl-1H-pyrazolo[3,4-b]pyridine-6-carboxamide] | 432.55 | 6.98 | 107 | 235.5 | 6.45 | 296.6667 | –
16 | CCCOC1CCN(c2cc(C(=O)NS(C)(=O)=O)nc3c2c(C2CCC2)nn3-c2ccccc2)CC1 [Compound 152, 3-cyclobutyl-N-(methanesulfonyl)-1-phenyl-4-(4-propoxypiperidin-1-yl)-1H-pyrazolo[3,4-b]pyridine-6-carboxamide] | 409.9 | 6.97 | 16 | 242.35 | 6.45 | 482.77 | –
17 | COC1CCN(C2CCN(c3cc(C(=O)NS(=O)(=O)N4CC(F)C4)nc4c3c(C3CCC3)nn4-c3ccc(F)cc3)CC2)CC1 [Compound 646, 3-cyclobutyl-N-(3-fluoroazetidine-1-sulfonyl)-1-(4-fluorophenyl)-4-(4-methoxy[1,4'-bipiperidin]-1'-yl)-1H-pyrazolo[3,4-b]pyridine-6-carboxamide] | 447.9 | 6.59 | 23.5 | 236.13 | 6.40 | – | 276.7167
